Laboratory results as given in PubChem BioAssay AID1845195 (Molecular Pharmacology Branch, DTP, NCI, 2023).
Several values for one entry are separate records, joined by “and”; a condition that tells them apart may be missing. Equal values may be shown once.

Tested on: 156681-154-R-J1 tumor spheroid viability
Assay: Anticancer human tumor 156681-154-R-J1 patient-derived melanoma cell line growth inhibition
Conditions: spheroids with HUVEC and MSC; for viability, T/C: stronger effect = lower value
Method in brief: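 Single agents and combinations were tested on spheroids built from tumor cells plus HUVEC and hMSC, at half-log dilutions starting at or near clinical Cmax, else 10 microM; final DMSO 0.25% (v/v).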

[1] = curve of first compound, second compound 1 µM
[2] = curve of first compound, second compound 3.16 µM
[3] = curve of first compound, second compound 10 µM
[4] = curve of first compound, second compound 31.6 µM
[5] = curve of first compound, second compound 100 µM
[6] = second compound 1 µM, first compound 0.0316 µM
[7] = second compound 1 µM, first compound 0.1 µM
[8] = second compound 1 µM, first compound 0.316 µM
[9] = second compound 1 µM, first compound 1 µM
[10] = second compound 1 µM, first compound 3.16 µM
[11] = second compound 1 µM, first compound 10 µM
[12] = second compound 3.16 µM, first compound 0.0316 µM
[13] = second compound 3.16 µM, first compound 0.1 µM
[14] = second compound 3.16 µM, first compound 0.316 µM
[15] = second compound 3.16 µM, first compound 1 µM
[16] = second compound 3.16 µM, first compound 3.16 µM
[17] = second compound 3.16 µM, first compound 10 µM
[18] = second compound 10 µM, first compound 0.0316 µM
[19] = second compound 10 µM, first compound 0.1 µM
[20] = second compound 10 µM, first compound 0.316 µM
[21] = second compound 10 µM, first compound 1 µM
[22] = second compound 10 µM, first compound 3.16 µM
[23] = second compound 10 µM, first compound 10 µM
[24] = second compound 31.6 µM, first compound 0.0316 µM
[25] = second compound 31.6 µM, first compound 0.1 µM
[26] = second compound 31.6 µM, first compound 0.316 µM
[27] = second compound 31.6 µM, first compound 1 µM
[28] = second compound 31.6 µM, first compound 3.16 µM
[29] = second compound 31.6 µM, first compound 10 µM
[30] = second compound 100 µM, first compound 0.0316 µM
[31] = second compound 100 µM, first compound 0.1 µM
[32] = second compound 100 µM, first compound 0.316 µM
[33] = second compound 100 µM, first compound 1 µM
[34] = second compound 100 µM, first compound 3.16 µM
[35] = second compound 100 µM, first compound 10 µM
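Further: spheroids exposed to compounds for 7 days before readout.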
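Wherever viability, T/C is given: percent of vehicle control viability where 100% = DMSO-treated spheroids.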

[2H]c1nc(C)nc([2H])c1-c1cc(NC[C@@H](C)c2cccc3c(C(=O)NC)ccnc23)ncn1 + Cn1nnc2c(C(N)=O)ncn2c1=O
IC50 [1]: > 10 µM | IC50 [2]: > 10 µM | IC50 [3]: > 10 µM | IC50 [4]: > 10 µM | IC50 [5]: 2.47 µM | viability, T/C [6]: 117% | viability, T/C [7]: 107% | viability, T/C [8]: 104% | viability, T/C [9]: 83.8% | viability, T/C [10]: 92.8% | viability, T/C [11]: 82.4% | viability, T/C [12]: 71.8% | viability, T/C [13]: 101% | viability, T/C [14]: 114% | viability, T/C [15]: 112% | viability, T/C [16]: 120% | viability, T/C [17]: 87.4% | viability, T/C [18]: 80% | viability, T/C [19]: 69.7% | viability, T/C [20]: 59.7% | viability, T/C [21]: 63.8% | viability, T/C [22]: 73.3% | viability, T/C [23]: 64.9% | viability, T/C [24]: 54.9% | viability, T/C [25]: 58.6% | viability, T/C [26]: 48.7% | viability, T/C [27]: 47.9% | viability, T/C [28]: 52% | viability, T/C [29]: 54% | viability, T/C [30]: 55.3% | viability, T/C [31]: 47.8% | viability, T/C [32]: 54.4% | viability, T/C [33]: 52.4% | viability, T/C [34]: 48.3% | viability, T/C [35]: 48.9%

Cn1nnc2c(C(N)=O)ncn2c1=O
viability, T/C (compound 1 µM): 90.8% [middle of 10 runs] | viability, T/C (compound 31.6 µM): 57.1% [middle of 10 runs] | IC50 (compound alone, run of 10/17/2019): 81 µM and > 100 µM and 72.6 µM

[2H]c1nc(C)nc([2H])c1-c1cc(NC[C@@H](C)c2cccc3c(C(=O)NC)ccnc23)ncn1
viability, T/C (compound 0.0316 µM): 84.5% and 81.3% and 110% | viability, T/C (compound 0.1 µM): 98.4% and 80% and 94.7% | viability, T/C (compound 0.316 µM): 91.8% and 92.6% and 92.1% | viability, T/C (compound 1 µM): 86.1% and 87.3% and 89.5% | viability, T/C (compound 3.16 µM): 91.8% and 77.7% and 88.6% | viability, T/C (compound 10 µM): 86.8% and 70% and 99.2% | IC50 (curve of compound): > 10 µM

CC(C)n1c(=O)n(C)c2cnc3cc(F)c(-c4ccc(OCCCN5CCCCC5)nc4)cc3c21 + Cn1nnc2c(C(N)=O)ncn2c1=O
IC50 [1]: > 10 µM | IC50 [2]: > 10 µM | IC50 [3]: > 10 µM | IC50 [4]: < 0.0316 µM | IC50 [5]: < 0.0316 µM | viability, T/C [6]: 116% | viability, T/C [7]: 122% | viability, T/C [8]: 110% | viability, T/C [9]: 104% | viability, T/C [10]: 108% | viability, T/C [11]: 95.1% | viability, T/C [12]: 85.2% | viability, T/C [13]: 83% | viability, T/C [14]: 111% | viability, T/C [15]: 123% | viability, T/C [16]: 98.9% | viability, T/C [17]: 71.4% | viability, T/C [18]: 78.5% | viability, T/C [19]: 63.5% | viability, T/C [20]: 70.8% | viability, T/C [21]: 72.4% | viability, T/C [22]: 75.5% | viability, T/C [23]: 64.1% | viability, T/C [24]: 47.2% | viability, T/C [25]: 54.5% | viability, T/C [26]: 53% | viability, T/C [27]: 48.3% | viability, T/C [28]: 52% | viability, T/C [29]: 55.8% | viability, T/C [30]: 51.9% | viability, T/C [31]: 43.3% | viability, T/C [32]: 46.8% | viability, T/C [33]: 48.2% | viability, T/C [34]: 49.5% | viability, T/C [35]: 43.4%

[2H]c1nc(C)nc([2H])c1-c1cc(NC[C@@H](C)c2cccc3c(C(=O)NC)ccnc23)ncn1 + COc1cc2c(cc1O)CCNC21CSC2c3c(OC(C)=O)c(C)c4c(c3C(COC1=O)N1C(O)C3Cc5cc(C)c(OC)c(O)c5C(C21)N3C)OCO4
IC50 (curve of first compound, second compound 30 pM): > 10 µM | IC50 (curve of first compound, second compound 94.9 pM): > 10 µM | IC50 (curve of first compound, second compound 0.0003 µM): > 10 µM | IC50 (curve of first compound, second compound 0.000949 µM): < 0.0316 µM | IC50 (curve of first compound, second compound 0.003 µM): < 0.0316 µM | viability, T/C (second compound 30 pM, first compound 0.0316 µM): 91.3% | viability, T/C (second compound 30 pM, first compound 0.1 µM): 96% | viability, T/C (second compound 30 pM, first compound 0.316 µM): 109% | viability, T/C (second compound 30 pM, first compound 1 µM): 95.1% | viability, T/C (second compound 30 pM, first compound 3.16 µM): 92.3% | viability, T/C (second compound 30 pM, first compound 10 µM): 94% | viability, T/C (second compound 94.9 pM, first compound 0.0316 µM): 89.6% | viability, T/C (second compound 94.9 pM, first compound 0.1 µM): 111% | viability, T/C (second compound 94.9 pM, first compound 0.316 µM): 105% | viability, T/C (second compound 94.9 pM, first compound 1 µM): 85% | viability, T/C (second compound 94.9 pM, first compound 3.16 µM): 90.4% | viability, T/C (second compound 94.9 pM, first compound 10 µM): 76.8% | viability, T/C (second compound 0.0003 µM, first compound 0.0316 µM): 79.7% | viability, T/C (second compound 0.0003 µM, first compound 0.1 µM): 86.6% | viability, T/C (second compound 0.0003 µM, first compound 0.316 µM): 80% | viability, T/C (second compound 0.0003 µM, first compound 1 µM): 75.3% | viability, T/C (second compound 0.0003 µM, first compound 3.16 µM): 81.9% | viability, T/C (second compound 0.0003 µM, first compound 10 µM): 62.4% | viability, T/C (second compound 0.000949 µM, first compound 0.0316 µM): 6.44% | viability, T/C (second compound 0.000949 µM, first compound 0.1 µM): 4.98% | viability, T/C (second compound 0.000949 µM, first compound 0.316 µM): 4.24% | viability, T/C (second compound 0.000949 µM, first compound 1 µM): 4.33% | viability, T/C (second compound 0.000949 µM, first compound 3.16 µM): 3.62% | viability, T/C (second compound 0.000949 µM, first compound 10 µM): 3.23% | viability, T/C (second compound 0.003 µM, first compound 0.0316 µM): 0.26% | viability, T/C (second compound 0.003 µM, first compound 0.1 µM): 0.3% | viability, T/C (second compound 0.003 µM, first compound 0.316 µM): 0.22% | viability, T/C (second compound 0.003 µM, first compound 1 µM): 0.17% | viability, T/C (second compound 0.003 µM, first compound 3.16 µM): 0.17% | viability, T/C (second compound 0.003 µM, first compound 10 µM): 0.28%

Cn1ncnc1[C@H]1c2n[nH]c(=O)c3cc(F)cc(c23)N[C@@H]1c1ccc(F)cc1
viability, T/C (compound 0.00949 µM): 69.9% and 99.2% and 102% | viability, T/C (compound 0.03 µM): 71.1% and 90.5% and 84.6% | viability, T/C (compound 0.0949 µM): 79.2% and 71.3% and 86.4% | viability, T/C (compound 0.3 µM): 71.5% and 69% and 85.9% | viability, T/C (compound 0.949 µM): 67.1% and 59.8% and 73.4% | viability, T/C (compound 3 µM): 8.93% and 21.2% and 16.4% | IC50 (curve of compound): 1.33 µM and 0.993 µM and 1.5 µM
